# Laboratory results as given in patent publication US12551578B2, “Compound or salt thereof” (SHIZUOKA PREFECTURAL UNIVERSITY CORPORATION, priority 2019, dated 2026).
# Tested on: bovine thymus DNA
# Experiment: DNA intercalation analysis by fluorescence intensity on mixing with DNA
# Format: binding
# Conditions: FIG. 4 and Table 1
# Protocol: Since the fluorescence intensity was improved due to intercalation of the compound between base pairs of DNA, the fluorescence intensity was measured by mixing DNA and the compound. First, the compounds shown in Table 1 were dissolved in a 0.1 M Tris-HCl buffer solution (pH 7.5) at 10 μg/mL, and bovine thymus DNA was added thereto at 0 μg/mL, 5 μg/mL, 10 μg/mL or 20 μg/mL to prepare measurement samples. Then, the fluorescence intensity of each measurement sample was measured (excitation wavelength 355 to 536 nm, fluorescence wavelength of 420 to 605 nm). In Table 1, the fluorescence intensity ratio is a ratio (DNA20/DNA0) of the fluorescence intensity (DNA20) when the DNA concentration was 20 μg/mL and the fluorescence intensity (DNA0) when the DNA concentration was 0 μg/mL.
row,Compound,intercalation into DNA judged from fluorescence intensity
1,CC(C)N(c1ccc2c(c1)C(c1ccccc1)N(C)c1cc(N(C(C)C)C(C)C)ccc1-2)C(C)C (stereo not drawn) [Di-isopropyl form],almost no intercalation into DNA occurred
2,CN1c2cc(NC3CCC3)ccc2-c2ccc(NC3CCC3)cc2C1c1ccccc1 (stereo not drawn) [Cyclobutyl form],almost no intercalation into DNA occurred
3,CC(C)Nc1ccc2c(c1)C(c1ccccc1)N(C)c1cc(NC(C)C)ccc1-2 (stereo not drawn) [Isopropyl form],almost no intercalation into DNA occurred
4,"C[n+]1c(-c2ccccc2)c2cc(N)ccc2c2ccc(N)cc21 [Methidium, reference compound]",intercalation into DNA occurred

# Same assay, conditions: compound 10 μg/mL in 0.1 M Tris-HCl pH 7.5; DNA 20 μg/mL versus 0 μg/mL
row,Compound,Fluorescence intensity ratio (DNA20/DNA0)
1,CC(C)N(c1ccc2c(c1)C(c1ccccc1)N(C)c1cc(N(C(C)C)C(C)C)ccc1-2)C(C)C (stereo not drawn) [Di-isopropyl form],0.759
2,CN1c2cc(NC3CCC3)ccc2-c2ccc(NC3CCC3)cc2C1c1ccccc1 (stereo not drawn) [Cyclobutyl form],1.62
3,CC(C)Nc1ccc2c(c1)C(c1ccccc1)N(C)c1cc(NC(C)C)ccc1-2 (stereo not drawn) [Isopropyl form],0.996
4,"C[n+]1c(-c2ccccc2)c2cc(N)ccc2c2ccc(N)cc21 [Methidium, reference compound]",3.03

# Tested on: reactive oxygen species in the brain (right striatum)
# Experiment: PET measurement of probe accumulation in SNP model rats
# Format: in vivo, rat
# Conditions: 20 MBq i.v. bolus, 30-45 minutes after administration, FIGS. 2(E) and 2(F)
# Protocol: Accumulation of [^18F]FHM, [^18F]FPHM and [^11C]HM was analyzed using rats in which reactive oxygen species were produced in the brain (right striatum) to which sodium nitroprusside (SNP) has been administered.
# While rats were anesthetized with 1.5-2.0% isoflurane (dilution gas:oxygen), 4 μL of a 20 nmol/μL SNP solution (saline) was injected into the right striatum of the rat at a rate of 0.8 μL/min using a Hamilton syringe (26 gauge). 4 μL of a saline was injected into the left striatum in the same method. PET measurement was performed on SNP-administered rats (SNP model rats) 60 minutes after SNP administration.
# After transmission measurement was performed for 15 minutes for absorption correction, a bolus of 20 MBq [^18F]FHM, [^18F]FPHM or [^11C]HM was administered from the caudal vein of the rat, and emission measurement was performed for 90 minutes. After PET measurement was completed, the PET accumulation images of the brain 0-15 minutes, 15-30 minutes, 30-45 minutes, 45-60 minutes, 60-75 minutes, and 75-90 minutes after [^18F]FHM, [^18F]FPHM or [^11C]HM was administered were superimposed on the brain CT images. Regions of interest were set on the PET images of the right striatum and the left striatum identified from the X-CT images, and the value normalized according to the body weight of each individual subject and the administered radioactivity amount was used as the amount of [^18F]FHM, […] or […] accumulated at each site (radioactivity accumulated amount (SUV)) (each group, 5 rats).
# In addition, as a control, PET measurement was performed on rats in which only a saline was administered to both the right striatum and the left striatum (control rat) in the same method as above.
row,Compound,ratio of radioactivity accumulated amount (SUV) between right striatum (SNP) and left striatum (control)
1,CN1c2cc(N)ccc2-c2ccc(N)cc2C1c1ccc([18F])cc1 (stereo not drawn) [[^18F]FHM],about 5 times
2,"[11CH3]N1c2cc(N)ccc2-c2ccc(N)cc2C1c1ccccc1 (stereo not drawn) [[^11C]HM, reference compound]",about 3 times

# Same assay, conditions: FIGS. 2(A) and 2(B)
row,Compound,"radioactivity accumulated amount in the right striatum, comparison of probes"
1,CN1c2cc(N)ccc2-c2ccc(N)cc2C1c1ccc([18F])cc1 (stereo not drawn) [[^18F]FHM],larger in [^18F]FHM than in [^11C]HM

# Tested on: bovine thymus DNA
# Experiment: DNA intercalation analysis by shift of absorption wavelength (bathochromic effect)
# Format: binding
# Conditions: DNA 30 μg/mL versus 0 μg/mL
# Protocol: In addition, since the absorption spectrum shifted to the long wavelength side due to intercalation of the compound between base pairs of DNA (bathochromic effect), the shift of the absorption wavelength was measured by mixing DNA and the compound. Specifically, the compounds shown in Table 2 were dissolved in a 0.1 M Tris-HCl buffer solution at 10 μg/mL, and bovine thymus DNA was added thereto at 0 μg/mL or 30 μg/mL to prepare measurement samples. Then, the absorption spectrum of each measurement sample was measured, and the absorption wavelength (peak top wavelength) was determined.
row,Compound,Absorption wavelength difference
1,CC(C)N(c1ccc2c(c1)C(c1ccccc1)N(C)c1cc(N(C(C)C)C(C)C)ccc1-2)C(C)C (stereo not drawn) [Di-isopropyl form],4 nm
2,CN1c2cc(NC3CCC3)ccc2-c2ccc(NC3CCC3)cc2C1c1ccccc1 (stereo not drawn) [Cyclobutyl form],18 nm
3,CC(C)Nc1ccc2c(c1)C(c1ccccc1)N(C)c1cc(NC(C)C)ccc1-2 (stereo not drawn) [Isopropyl form],8 nm
4,"C[n+]1c(-c2ccccc2)c2cc(N)ccc2c2ccc(N)cc21 [Methidium, reference compound]",40 nm

# Same assay, conditions: Table 2
row,Compound,intercalation into DNA judged from absorption wavelength shift
1,CC(C)N(c1ccc2c(c1)C(c1ccccc1)N(C)c1cc(N(C(C)C)C(C)C)ccc1-2)C(C)C (stereo not drawn) [Di-isopropyl form],almost no intercalation into DNA occurred
2,CN1c2cc(NC3CCC3)ccc2-c2ccc(NC3CCC3)cc2C1c1ccccc1 (stereo not drawn) [Cyclobutyl form],almost no intercalation into DNA occurred
3,CC(C)Nc1ccc2c(c1)C(c1ccccc1)N(C)c1cc(NC(C)C)ccc1-2 (stereo not drawn) [Isopropyl form],almost no intercalation into DNA occurred
4,"C[n+]1c(-c2ccccc2)c2cc(N)ccc2c2ccc(N)cc21 [Methidium, reference compound]",intercalation into DNA occurred

# Same assay, conditions: compound 10 μg/mL in 0.1 M Tris-HCl; peak top wavelength
Compound,DNA0: Absorption wavelength when DNA concentration was 0 μg/mL,DNA30: Absorption wavelength when DNA concentration was 30 μg/mL
CC(C)N(c1ccc2c(c1)C(c1ccccc1)N(C)c1cc(N(C(C)C)C(C)C)ccc1-2)C(C)C (stereo not drawn) [Di-isopropyl form],559 nm,563 nm
CN1c2cc(NC3CCC3)ccc2-c2ccc(NC3CCC3)cc2C1c1ccccc1 (stereo not drawn) [Cyclobutyl form],557 nm,575 nm
CC(C)Nc1ccc2c(c1)C(c1ccccc1)N(C)c1cc(NC(C)C)ccc1-2 (stereo not drawn) [Isopropyl form],517 nm,525 nm
"C[n+]1c(-c2ccccc2)c2cc(N)ccc2c2ccc(N)cc21 [Methidium, reference compound]",481 nm,521 nm

# Tested on: not listed separately
# Experiment: Quantum yield and molar absorption coefficient (Table 1)
# Format: physicochemical
# Conditions: not given
Compound,ε · ϕ (molar absorption coefficient x quantum yield),ϕ: quantum yield
CC(C)N(c1ccc2c(c1)C(c1ccccc1)N(C)c1cc(N(C(C)C)C(C)C)ccc1-2)C(C)C (stereo not drawn) [Di-isopropyl form],118.8,8.48 10^−3
CN1c2cc(NC3CCC3)ccc2-c2ccc(NC3CCC3)cc2C1c1ccccc1 (stereo not drawn) [Cyclobutyl form],47.04,3.62 10^−3
CC(C)Nc1ccc2c(c1)C(c1ccccc1)N(C)c1cc(NC(C)C)ccc1-2 (stereo not drawn) [Isopropyl form],568.8,40.6 10^−3
"C[n+]1c(-c2ccccc2)c2cc(N)ccc2c2ccc(N)cc21 [Methidium, reference compound]",97.34,2.68 10^−3

# Tested on: reactive oxygen species in the brain (right striatum)
# Experiment: Brain fluorescence imaging in SNP model rats
# Format: in vivo, rat
# Conditions: 5 mg/kg i.v. bolus, brain extracted 1 hour after administration, compared to DHE, FIG. 5
# Protocol: 4 μL of a 20 nmol/μL SNP solution (phosphate buffered saline (PBS) solution) was injected into the right striatum of the rat at a rate of 0.8 μL/min using a Hamilton syringe (26 gauge). 4 μL of PBS was injected into the left striatum in the same method. A bolus of 5 mg/kg DHE or isopropyl reduced component was administered from the caudal vein of the rat 60 minutes after SNP administration for SNP-administered rats (SNP model rats). The brain was extracted 1 hour after administration and a 20 μm-thick frozen section was prepared. Brain fluorescence images were obtained by a scanner type image analysis device (FLA700: excitation wavelength of 532 nm, filter 580 nm).
row,Compound,accumulation in the right striatum to which SNP has been administered (brain fluorescence images)
1,CC(C)Nc1ccc2c(c1)C(c1ccc(F)cc1)N(C)c1cc(NC(C)C)ccc1-2 (stereo not drawn) [isopropyl reduced component],a large amount of accumulation in the right striatum
